Publication PMC6950336, “Co-Occurrence of DON and Emerging Mycotoxins in Worldwide Finished Pig Feed and Their Combined Toxicity in Intestinal Cells” (Toxins, 2019)
Read-outs that look alike come from different tables or passages of the source.

What was measured:
IPEC-1 cells [1] = conditions: for Individual toxicity compared with DON: IPEC-1, 48 h, dose-effect curves; for IC50: read-out: IC50 (dose leading to a 50% reduction in cell viability); for IC50 / IC50 (dose leading to a 50% reduction in cell viability): mean ± SEM of three biological replicates; for Toxicity to intestinal cells at high concentrations: IPEC-1, concentrations of up to 300 µM
IPEC-1 cells [2] = test: cells; conditions: Sus scrofa, 48 h, read-out: IC50 (dose leading to a 50% reduction in cell viability)
IPEC-J2 = conditions: read-out: relative IC50; cited from earlier work
[3] = test system: lymphocytes and splenocytes; conditions: cited from earlier work
[4] = test system: human multiple myeloma blood cells; conditions: cited from earlier work
Caco-2 = conditions: cited from earlier work
HepG2 [5] = conditions: cited from earlier work
A549 = conditions: A549, 2 mM; cited from earlier work
THP-1 cells = conditions: THP-1, 2 mM; cited from earlier work
HepG2 [6] = conditions: HepG2, 2 mM; cited from earlier work
[7] = lymphocytes and splenocytes, low doses (> 0.1µM)
[8] = ratio 3, highest concentration(s): DON 50 µM + EMO 5 µM / ENN-B 17.2 µM / BEA 2.3 µM / ENN-A1 6.5 µM, ENN-B1 6 and 18 µM

CCC(=O)CCCCC[C@@H]1NC(=O)[C@H]2CCCCN2C(=O)[C@H]([C@@H](C)CC)NC(=O)[C@H](Cc2cn(OC)c3ccccc23)NC1=O [Apicidin]
Toxicity (classification from IC50 compared with DON) (IPEC-1 cells [1]): Highly toxic | Toxicity of the emerging mycotoxin alone (IPEC-1 cells [1]): not toxic | Individual toxicity compared with DON (IPEC-1 cells [1]): more toxic than DON | Concentration at which toxicity was confirmed (IPEC-1 cells [1]; pig): > 500 nM | Toxicity of the combination of DON and the emerging mycotoxin (IPEC-1 cells [1]; ratio 2, doses lower than DON (5.6 µM) + API (0.09 µM)): lower than the toxicity of DON alone, but higher than API alone | IC50 (IPEC-1 cells [2]): 1.5 ± 0.5 µM

COC1=C(C2=C(OC)C(=O)c3cc4oc(C)cc(=O)c4c(O)c3C2=O)C(=O)c2c(cc3oc(C)cc(=O)c3c2O)C1=O [Aurofusarin]
IC50 (IPEC-J2): 9.3 µM | Toxicity (classification from IC50 compared with DON) (IPEC-1 cells [1]): Moderately toxic | Toxicity of the emerging mycotoxin alone (IPEC-1 cells [1]): minimal | Individual toxicity compared with DON (IPEC-1 cells [1]): less than that of DON | IC50 (IPEC-1 cells [1]): 19.1 ± 3.4 µM

O=C1N[C@@H](Cc2c[nH]c3ccccc23)C(=O)N2CCC[C@@H]12 [Brevianamide F]
Toxicity (classification from IC50 compared with DON) (IPEC-1 cells [1]): Non-toxic | Toxicity to intestinal cells at high concentrations (IPEC-1 cells [1]): not toxic | IC50 (dose leading to a 50% reduction in cell viability) (IPEC-1 cells [1]): Non-Toxic

O=C1N[C@@H](Cc2ccc(O)cc2)C(=O)N2CCC[C@@H]12 [Cyclo-(L-Pro-L-Tyr)]
Toxicity (classification from IC50 compared with DON) (IPEC-1 cells [1]): Non-toxic | Toxicity to intestinal cells at high concentrations (IPEC-1 cells [1]): not toxic | IC50 (dose leading to a 50% reduction in cell viability) (IPEC-1 cells [1]): Non-Toxic

CC1=C[C@H]2O[C@@H]3[C@H](O)C[C@](C)([C@@]2(CO)[C@H](O)C1=O)[C@]31CO1 [Deoxynivalenol]
Proliferation [3, 7]: up to 200% | Toxicity (classification from IC50 compared with DON) (IPEC-1 cells [1]): Highly toxic | IC50 (IPEC-1 cells [1]): 3.2 ± 0.7 µM

Cc1cc(O)c2c(c1)C(=O)c1cc(O)cc(O)c1C2=O [Emodin]
IC50 [4]: 38 µM | IC50 (IPEC-J2): 13.1 µM | Proliferation induced by the toxin alone (IPEC-1 cells [1]): up to 130% | Toxicity (classification from IC50 compared with DON) (IPEC-1 cells [1]): Moderately toxic | Individual toxicity compared with DON (IPEC-1 cells [1]): less than that of DON | Toxicity of the combination of DON and the emerging mycotoxin (IPEC-1 cells [1]; [8]): less toxic than DON alone | IC50 (IPEC-1 cells [2]): 19 ± 0.7 µM

CC[C@H](C)[C@H]1C(=O)O[C@H](C(C)C)C(=O)N(C)[C@@H](C(C)C)C(=O)O[C@H](C(C)C)C(=O)N(C)[C@@H](C(C)C)C(=O)O[C@H](C(C)C)C(=O)N1C [Enniatin B1]
Toxicity (classification from IC50 compared with DON) (IPEC-1 cells [1]): Moderately toxic | Toxicity of the emerging mycotoxin alone (IPEC-1 cells [1]): minimal | Individual toxicity compared with DON (IPEC-1 cells [1]): less than that of DON | Toxicity of the combination of DON and the emerging mycotoxin (IPEC-1 cells [1]; in mixture with DON, ratio 3, in general (exceptions reported separately)): the same as the toxicity of DON alone | Toxicity of the combination of DON and the emerging mycotoxin (IPEC-1 cells [1]; ratio 2, highest concentration: DON 50 µM + ENN-B1 4.1 µM / ENN-B 3.6 µM / ENN-A1 1.7 µM): higher than the toxicity of ENN-B1 alone, but lower than the toxicity of DON alone | Toxicity of the combination of DON and the emerging mycotoxin (IPEC-1 cells [1]; [8]): the same as the toxicity of ENN-B1 alone, but lower than the toxicity of DON alone | IC50 (IPEC-1 cells [2]): 13.5 ± 2.5 µM

CC(C)[C@H]1C(=O)O[C@H](C(C)C)C(=O)N(C)[C@@H](C(C)C)C(=O)O[C@H](C(C)C)C(=O)N(C)[C@@H](C(C)C)C(=O)O[C@H](C(C)C)C(=O)N1C [Enniatin B]
Toxicity (Caco-2): no toxicity at all | Toxicity (HepG2 [5]): no toxicity at all | Toxicity (classification from IC50 compared with DON) (IPEC-1 cells [1]): Highly toxic | Toxicity of the emerging mycotoxin alone (IPEC-1 cells [1]): not toxic | Individual toxicity compared with DON (IPEC-1 cells [1]): close to that of DON | Toxicity of the combination of DON and the emerging mycotoxin (IPEC-1 cells [1]; [8]): lower than the toxicity of either DON alone or ENN-B alone | IC50 (IPEC-1 cells [2]): 4.4 ± 0.9 µM

OCCc1c[nH]c2ccccc12 [Tryptophol]
DNA damage (A549): induced DNA damage | Toxicity (classification from IC50 compared with DON) (IPEC-1 cells [1]): Non-toxic | Toxicity to intestinal cells at high concentrations (IPEC-1 cells [1]): not toxic | IC50 (dose leading to a 50% reduction in cell viability) (IPEC-1 cells [1]): Non-Toxic | DNA damage (THP-1 cells): induced DNA damage | DNA damage (HepG2 [6]): induced DNA damage

CCCC[C@@H](C)[C@@H](OC(=O)C[C@@H](CC(=O)O)C(=O)O)[C@H](C[C@@H](C)C[C@H](O)CCCC[C@@H](O)C[C@H](O)[C@H](C)N)OC(=O)C[C@@H](CC(=O)O)C(=O)O [fumonisin B1]
Proliferation [3, 7]: up to 200%

CC1=C[C@H]2O[C@@H]3[C@H](O)[C@@H](O)[C@](C)([C@@]2(CO)[C@H](O)C1=O)[C@]31CO1 [nivalenol]
Proliferation [3]: up to 200%

Beauvericin
IC50 (IPEC-1 cells [1]): 4.3 ± 1.8 µM

Enniatin A1
IC50 (IPEC-1 cells [1]): 1.6 ± 0.3 µM

aflatoxin B1
Proliferation [3]: up to 200%
